The values that follow come from patent publication US20220220106A1, “QUINOLINE COMPOUNDS AND PHARMACEUTICAL COMPOSITIONS AND USES THEREOF” (Academy of Military Medical Sciences, priority 2019, published 2022).

As a reminder, the IC50 is the midpoint of a concentration-inhibition curve.

Holding throughout (type): cell-based
The target in one data set is T1, mTORC2 (Homo sapiens, UniProt P42345).
T1 construct: endogenous in cells; host or cells: RD cells
The data set is described as follows: Western blot, phosphorylation of Ser473 of Akt in RD cells (mTORC2 inhibition). To be noted: 20 μM, 2 hours, Western blot (FIG. 1). The protocol:
(§1) In order to test the inhibitory activity of the synthesized compounds on the two mTOR complexes, the inhibitory activity experiments of mTORC1 and mTORC2 were carried out. Since mTORC1 and mTORC2 exerted their function by activating the phosphorylation of downstream substrates, the inhibitory activity of the compounds on mTORC1 and mTORC2 could be determined by detecting the phosphorylation levels of the Thr389 site of mTORC1 downstream substrate p70S6K1 and the Ser473 site of mTORC2 downstream substrate Akt.
(§2) Pretreatment of Compound:
(§3) (1) RD cells were cultured in DMEM medium containing 10% FBS and 1×PS (penicillin and streptomycin were at concentrations 100 IU and 100 μg/mL, respectively) at 37° C. and 5% CO2.
(§4) (2) The RD cells (5×10^5 cells/2 mL medium) were inoculated into a 6-well plate and incubated at 37° C. and 5% CO2 for 24 hours.
(§5) (3) The cells were washed once with PBS, and the cells were cultured in serum-free medium without nutrients overnight.
(§6) (4) Formulation of compounds: […]
(§7) Preparation of insulin medium: Insulin was diluted in DMEM medium containing 10% FBS and 1×PS so that the final concentration of insulin was 167 nM.
(§8) Pretreatment of compound to be tested: The compound was dissolved in DMSO so that the concentration of the test compound was 20 mM, and the compound was diluted in 167 nM insulin medium to reach a concentration of 20 μM.
(§9) Preparation of rapamycin solution: Rapamycin was dissolved in DMSO to a concentration of 10 mM, and the rapamycin was diluted in 167 nM insulin medium to reach a concentration of 20 μM.
(§10) (5) The serum-free medium in each well was removed.
(§11) (6) 2 mL of complete medium containing DMSO was added to each well as a control carrier. The final concentration of DMSO was 0.2%.
(§12) (7) 2 mL of 20 μM rapamycin solution and 20 μM the compound to be tested were added to the designated wells, respectively. The final concentration of DMSO was 0.2%.
(§13) (8) The cells were incubated for 2 hours at 37° C. and 5% CO2.
(§14) Protein extraction and concentration determination:
(§15) (1) The cells were washed once with refrigerated PBS, and then the PBS was discarded.
(§16) (2) 150 μL of cell extraction buffer (RIPA, […], catalog number: C1053) was transferred into each well to lyse the cells, and then the resulting cell solution were incubated on ice for 30 minutes.
(§17) (3) Centrifugation was performed at 14000 rpm (13000× g) for 30 minutes at 4° C.
(§18) (4) The supernatant was transferred into a new eppendorf tube, and the cell lysate was stored at −80° C. before testing.
(§19) (5) The protein concentration was determined by BCA method.
(§20) Preparation of Buffer Solutions:
(§21) (1) 100× Protease inhibitor (Beyotime, catalog number: P1005): 1 mL of redistilled water was added to the protease inhibitor and stirred gently until the solid was completely dissolved.
(§22) (2) Lysis Buffer: […] of 100× protease inhibitor and 2× phosphatase inhibitor Cocktails PhosSTOP (Beyotime, catalog number: P1082) were added to 100 mL of the cell extract, and stirred gently until it was completely dissolved.
(§23) (3) Electrophoresis Running Buffer:
(§24) 10×MOPS buffer: 52.33 g of MOPS, 30.29 g of Tris base, 10 mL of 0.5 mol/L EDTA (pH 8.5) and 5 g of SDS was dissolved in 400 mL of redistilled water, stirred to dissolve, and the pH was adjusted to 7.5, then redistilled water was added again to reach a volume of 500 mL; 1×MOPS: 100 mL of 10×MOPS was diluted with redistilled water to 1000 mL.
(§25) (4) 1× Transfer Buffer: […] of 10× transfer buffer (144 g of glucine, 30.3 g of trisbase, and distilled water were mixed to reach a volume of 1 L) and 400 mL of methanol were dissolved in 1500 mL of redistilled water, and then the redistilled water was added to reach a volume of 2000 mL. […]

A further data set deals with T2, mTORC1 (Homo sapiens, UniProt P42345).
T2 construct: endogenous in cells; host or cells: RD cells
The data set is described as follows: Western blot, phosphorylation of Thr389 of p70S6K1 in RD cells (mTORC1 inhibition). To be noted: 20 μM, 2 hours, Western blot (FIG. 1). As to the method:
as §1, §2, §3, §4, §5, §6, §7, §8, §9, §10, §11, §12, §13, §14, §15, §16, §17, §18, §19, §20, §21, §22, §23, §24, §25
(Immunoblotting shows a protein as a band on a membrane.)

In data set [1] the test system is Enterovirus 71 (EV71) H strain. Briefly: In vitro anti-EV71 activity (antiviral activity in RD cells, CellTiter-Glo). The note with it: Enterovirus A, 96 h; EV71 H strain, RD cells, 4 days, CellTiter-Glo; read-out: IC50. An outline of the steps: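 RD cells infected with 100TCID50 EV71 in DMEM+2% FBS, with compound in 10-point three-fold dilutions, cultured 4 days at 37° C. Cell viability by CellTiter-Glo luminescence; inhibition rate relative to cell control fitted to S-curve for IC50. TD50 derived likewise; SI=TD50/IC50.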
On the technique in general: In ATP-based viability assays light output follows the ATP content of the culture.

The test system of another data set is RD cells. The data set is described as follows: Detection of cytotoxicity in RD cells (CellTiter-Glo). The note with it: 4 days, CellTiter-Glo, median toxic dose. Summed up: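 RD cells (1*10^5/mL) cultured 4 days at 37 °C with 10 compound concentrations from 3-fold dilution of a 400 μM pretreatment solution, final being 0.5 times that. Viability by CellTiter-Glo luminescence versus cell control; TD50 from S-curve fit; SI=TD50/IC50.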

As for `CC(C)C(=O)Nc1ccc(-c2ccc3ncc4ccc(=O)n(-c5cccc(C(F)(F)F)c5)c4c3c2)cn1` [HTL-7-07, 9-[3-(2-isobutyrylamino)pyridyl]-2-oxo-1-[3-(trifluoromethyl)phenyl]-1,2-dihydrobenzo[h][1,6]naphthyridine], on mTORC2, the “phosphorylation expression level of Akt” value is recorded as “significantly down-regulate”. Further, at mTORC1, the “p70 phosphorylation expression level” value was “significantly down-regulate”. In addition, the IC50 in data set [1] turned out to be 380 ± 390 nM. The TD50 in the data set on RD cells is 0.46 ± 0.03 µM.
